Assay results from US20020002269A1, “ARTEMIN, A NEUROTROPHIC FACTOR” (priority 1998, published 2002).
Each block holds one molecule with its values, some of them ahead of it.

How the values were obtained:
[1] = system: NBL-S neuroblastoma cell line; experiment: BrdU cell proliferation assay in NBL-S neuroblastoma cells; format: cell-based; details: 50 ng/mL, 30 hrs after factor addition, FIG. 8D
Procedure: In another experiment, the ability of artemin to induce proliferation of the NBL-S neuroblastoma cell line was examined. NBL-S cells were plated at 5×10^4 cells/well on 48-well plates in standard medium, either without treatment or in the presence of 50 ng/mL of GDNF, artemin, or persephin. Actively dividing cells undergoing DNA synthesis 30 hrs after factor addition were detected using the BrdU (colorimetric) cell proliferation assay kit according to the manufacturer's instructions (Boehringer-Mannheim) and the data are shown in FIG. 8D.

[2] = system: trigeminal ganglion (TG) neurons; experiment: Survival of cultured trigeminal ganglion neurons; format: cell-based, rat; details: 50 ng/ml, FIG. 7C; for survival of TG sensory neurons: 3 days in vitro
Procedure: (§1) Each GDNF ligand family member consisted of the human mature amino acid sequence and was produced by standard recombinant DNA methods. Recombinant GDNF, neurturin and persephin were obtained from Genentech while recombinant artemin was produced as described in Example 3.
(§2) The cultures were performed using standard methods described elsewhere (Kotzbauer et al., Neuron 12:763-773, 1994; Kotzbauer et al., Nature 384:467-470, 1996; Milbrandt et al., Neuron 20:245-253, 1998). In brief, for SCG neurons, after dissection and dissociation, neurons were plated on collagen-coated 24-well tissue culture plates and maintained in NGF-containing medium (AM50) for 5 days, after which they were either kept in AM50 or switched to medium containing neutralizing anti-NGF antibodies plus GDNF, neurturin, persephin, artemin, (50 ng/ml where not noted otherwise), or no growth factors. Cultures were maintained for 3 days, after which they were fixed in 4% paraformaldehyde and stained with toluidine blue, and surviving neurons were counted. For nodose ganglion and dorsal root ganglion neuron cultures, dissociated neurons were plated directly into NGF (for dorsal root ganglia), or BDNF (for nodose ganglia, 100 ng/ml) or one of the GDNF ligands in serum-containing medium (AM50 with anti-NGF antibodies), and cells surviving after 3 days in culture were counted as above. Trigeminal ganglia were dissected, dissociated, and plated directly into medium containing NGF or the indicated GDNF ligands, and the number of surviving cells was assessed after 3 days in vitro. For all culture systems, 2-3 independent experiments were performed.

GFRα3/RET = biological target: T1, GFRα3/RET (Homo sapiens, UniProt O60609+P07949); experiment: Ga14-Elk/Ga14-Luc reporter in RET-3T3 fibroblasts transfected with GFRα3; format: cell-based; details: RET-3T3, 50 ng/ml for 6-8 hours, FIG. 10A
T1 construct: a fragment containing the complete coding region of human GFRα3 was PCR-amplified from a human pituitary cDNA library; expressed in transfected cells; host or cells: MG87 fibroblasts stably expressing human RET (RET-3T3), transiently transfected with pCB6-GFRα3
T1 sequence (O60609 32-374 limits assumed): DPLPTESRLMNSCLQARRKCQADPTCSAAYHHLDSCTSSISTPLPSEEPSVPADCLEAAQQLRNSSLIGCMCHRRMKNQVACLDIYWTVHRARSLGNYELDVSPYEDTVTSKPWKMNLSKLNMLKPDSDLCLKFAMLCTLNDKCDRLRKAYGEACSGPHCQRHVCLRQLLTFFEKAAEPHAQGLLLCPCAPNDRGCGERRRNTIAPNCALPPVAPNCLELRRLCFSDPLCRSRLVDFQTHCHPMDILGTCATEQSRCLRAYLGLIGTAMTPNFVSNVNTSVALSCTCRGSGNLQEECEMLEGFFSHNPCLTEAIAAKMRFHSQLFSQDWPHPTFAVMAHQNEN
T1 sequence (P07949 29-1114): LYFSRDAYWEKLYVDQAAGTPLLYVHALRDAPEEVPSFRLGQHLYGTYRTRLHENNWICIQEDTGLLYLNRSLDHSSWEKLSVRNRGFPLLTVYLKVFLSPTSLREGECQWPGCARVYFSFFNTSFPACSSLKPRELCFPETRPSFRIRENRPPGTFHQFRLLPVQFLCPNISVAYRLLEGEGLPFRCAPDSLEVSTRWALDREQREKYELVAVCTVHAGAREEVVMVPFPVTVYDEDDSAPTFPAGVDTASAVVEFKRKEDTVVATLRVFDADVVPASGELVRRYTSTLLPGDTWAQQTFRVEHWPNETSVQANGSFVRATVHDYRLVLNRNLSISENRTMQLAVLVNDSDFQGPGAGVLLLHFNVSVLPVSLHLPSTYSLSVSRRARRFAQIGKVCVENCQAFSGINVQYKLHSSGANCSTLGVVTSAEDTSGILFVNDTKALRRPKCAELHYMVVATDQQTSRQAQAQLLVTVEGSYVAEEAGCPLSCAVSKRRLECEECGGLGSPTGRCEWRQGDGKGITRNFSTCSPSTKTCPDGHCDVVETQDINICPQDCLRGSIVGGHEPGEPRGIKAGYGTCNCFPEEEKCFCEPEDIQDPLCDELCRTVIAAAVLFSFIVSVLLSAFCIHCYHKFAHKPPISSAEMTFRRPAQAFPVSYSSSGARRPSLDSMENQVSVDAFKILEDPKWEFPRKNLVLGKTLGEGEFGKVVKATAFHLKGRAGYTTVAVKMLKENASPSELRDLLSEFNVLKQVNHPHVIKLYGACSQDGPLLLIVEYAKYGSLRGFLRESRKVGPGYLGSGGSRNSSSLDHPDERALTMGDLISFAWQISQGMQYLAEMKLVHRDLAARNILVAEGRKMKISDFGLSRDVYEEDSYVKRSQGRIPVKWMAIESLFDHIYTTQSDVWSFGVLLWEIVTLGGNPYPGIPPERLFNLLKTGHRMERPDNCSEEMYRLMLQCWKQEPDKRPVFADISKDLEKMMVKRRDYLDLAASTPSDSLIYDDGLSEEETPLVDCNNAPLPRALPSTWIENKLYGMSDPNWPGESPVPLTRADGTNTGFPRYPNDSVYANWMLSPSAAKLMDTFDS
Procedure: (§3) Thus, to directly test which receptor combinations can form functional receptors for artemin, expression plasmids for the individual GFRA coreceptors together with the Ga14-Elk/Ga14-Luc reporter system were transiently transformed into fibroblasts that stably express RET. […]
(§4) NLF neuroblastoma cells, which naturally express GFRα2/RET (Tansey et al., submitted), or the RET-3T3 cells were plated at 85,000 cells/well in 12-well plates, and cotransfected with the reporter plasmids Ga14-Luc and CMV-Ga14-Elk (250 ng/well and 50 ng/well, respectively), CMV-lacZ (50 ng/well) for transfection normalization, one of the CMV-GFRA expression plasmids (500 ng/well), and pBluescript (650 ng/well) as carrier for a total of 1.5 μg DNA/well using the Superfect reagent (Qiagen) according to the manufacturer's instructions. […] Measurement of luciferase and β-galactosidase activity was measured using a luminometer and performed as described (Svaren et al., EMBO J 17:6010-6019, 1998). The average luciferase activity of duplicate samples was normalized to β-galactosidase activity of the cotransformed lacZ reporter, and fold activation was calculated by dividing the normalized activity in factor-treated cells by that in the no treatment control.

[3] = system: nodose ganglion (NG) neurons; experiment: Survival of cultured nodose ganglion neurons; format: cell-based, rat; details: FIG. 7D; for survival of NG neurons: 50 ng/ml, 3 days in culture; for survival promotion of NG neurons compared with BDNF: GDNF family ligands 50 ng/ml, BDNF 100 ng/ml
Procedure: as §1, §2

[4] = system: NLF cells transformed with GFRα1; experiment: Ga14-Elk/Ga14-Luc reporter in NLF neuroblastoma cells transformed with GFRα1; format: cell-based; details: factor for 24 hours, low-serum medium, FIG. 10B
Procedure: as §3, §4

Molecule: artemin: recombinant mature human artemin (FIG. 3A, SEQ ID NO:3) with 8-histidine tag, produced in E. coli; GDNF family neurotrophic factor
proliferation of NBL-S cells (BrdU incorporation) [1]: stimulated proliferation of NBL-S cells
survival of TG sensory neurons [2]: supported the survival of a subset of sensory neurons
number of TG neurons supported compared with GDNF or neurturin [2]: supported a larger number of neurons than GDNF or neurturin
number of TG neurons supported compared with NGF [2]: a greater number (TG)
activation of RET signaling in cells expressing GFRα3/RET (luciferase reporter) (GFRα3/RET): able to activate GFRα3/RET
survival of NG neurons [3]: supported similar numbers of NG neurons
survival promotion of NG neurons compared with BDNF [3]: equal or greater survival promotion than BDNF
response of NLF cells transformed with GFRα1 (luciferase reporter) [4]: became responsive to artemin

activation of RET signaling in cells expressing GFRα3/RET (luciferase reporter) (GFRα3/RET): not GFRα3/RET
B1: GDNF: recombinant human mature GDNF obtained from Genentech (protein, UniProt P39905 78-211, looked up)
Glial cell line-derived …: SPDKQMAVLPRRERNRQAAAANPENSRGKGRRGQRGKNRGCVLTAIHLNVTDLGLGYETKEELIFRYCSGSCDAAETTYDKILKNLSRNRRLVSDKVGQACCRPIAFDDDLSFLDDNLVYHILRKHSAKRCGCI
proliferation of NBL-S cells (BrdU incorporation) [1]: stimulated proliferation of NBL-S cells
survival of TG sensory neurons [2]: supported the survival of a subset of sensory neurons
survival of NG neurons [3]: supported similar numbers of NG neurons
survival promotion of NG neurons compared with BDNF [3]: equal or greater survival promotion than BDNF
response of NLF cells transformed with GFRα1 (luciferase reporter) [4]: responded more intensely to GDNF
